pKi: −log10 of the molar value.

The target of one test is T1, orexin-1 receptor (OX1R) (Homo sapiens, UniProt O43613).
T1 construct: expressed in transfected cells; host or cells: CHO cells (membranes)
T1 sequence (O43613 1-425): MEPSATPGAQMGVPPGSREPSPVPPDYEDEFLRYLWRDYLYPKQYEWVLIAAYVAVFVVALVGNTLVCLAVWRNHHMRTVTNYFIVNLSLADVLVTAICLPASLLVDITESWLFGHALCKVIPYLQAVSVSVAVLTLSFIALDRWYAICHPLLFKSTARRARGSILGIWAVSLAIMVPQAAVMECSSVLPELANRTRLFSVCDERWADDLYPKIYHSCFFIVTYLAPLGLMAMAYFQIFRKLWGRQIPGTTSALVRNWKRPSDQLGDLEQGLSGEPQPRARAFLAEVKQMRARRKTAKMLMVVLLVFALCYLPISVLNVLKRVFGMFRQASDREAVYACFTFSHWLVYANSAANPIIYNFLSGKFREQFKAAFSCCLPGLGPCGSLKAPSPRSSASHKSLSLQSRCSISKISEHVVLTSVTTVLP
The experiment in a line: radioligand binding assay, membranes from CHO cells expressing OX1. Conditions: CHO cell membranes. Here is the method: (§1) The utility of the compounds in accordance with the present invention as orexin receptor OX1R and/or OX2R antagonists may be readily determined without undue experimentation by methodology well known in the art, including the “FLIPR Ca^2+ Flux Assay” (Okumura et al., Biochem. Biophys. Res. Comm. 280:976-981, 2001). In a typical experiment the OX1 and OX2 receptor antagonistic activity of the compounds of the present invention was determined in accordance with the following experimental method. For intracellular calcium measurements, Chinese hamster ovary (CHO) cells expressing the rat OX1 receptor or the human OX2 receptor, are grown in Iscove's modified DMEM containing 2 mM L-glutamine, […], 1% hypoxanthine-thymidine supplement, 100 U/ml penicillin, 100 ug/ml streptomycin and 10% heat-inactivated fetal calf serum (FCS). The cells are seeded at 20,000 cells/well into Becton-Dickinson black 384-well clear bottom sterile plates coated with poly-D-lysine. All reagents were from GIBCO-Invitrogen Corp. The seeded plates are incubated overnight at 37° C. and 5% CO2. Ala-6,12 human orexin-A as the agonist is prepared as a 1 mM stock solution in 1% bovine serum albumin (BSA) and diluted in assay buffer (HBSS containing 20 mM HEPES, 0.1% BSA and 2.5 mM probenecid, pH7.4) for use in the assay at a final concentration of 70 pM. Test compounds are prepared as 10 mM stock solution in DMSO, then diluted in 384-well plates, first in DMSO, then assay buffer. On the day of the assay, cells are washed 3 times with 100 ul assay buffer and then incubated for 60 min (37° C., 5% CO2) in 60 ul assay buffer containing 1 uM Fluo-4AM ester, 0.02% pluronic acid, and 1% BSA. The dye loading solution is then aspirated and cells are washed 3 times with 100 ul assay buffer. 30 ul of that same buffer is left in each well. Within the Fluorescent Imaging Plate Reader (FLIPR, Molecular Devices), test compounds are added to the plate in a volume of 25 ul, incubated for 5 min and finally 25 ul of agonist is added. Fluorescence is measured for each well at 1 second intervals for 5 minutes and the height of each fluorescence peak is compared to the height of the fluorescence peak induced by 70 pM Ala-6,12 orexin-A with buffer in place of antagonist. […] Alternatively, compound potency can be assessed by a radioligand binding assay (described in Bergman et. al. Bioorg. Med. Chem. Lett. 2008, 18, 1425-1430) in which the inhibition constant (Ki) is determined in membranes prepared from CHO cells expressing either the orexin-1 (OX1) or orexin-2 (OX2) receptor. The intrinsic orexin receptor antagonist activity of a compound which may be used in the present invention may be determined by these assays.

Another test deals with T2, orexin-2 receptor (OX2R) (Homo sapiens, UniProt O43614).
T2 construct: expressed in transfected cells; host or cells: CHO cells (membranes)
T2 sequence (O43614 1-444): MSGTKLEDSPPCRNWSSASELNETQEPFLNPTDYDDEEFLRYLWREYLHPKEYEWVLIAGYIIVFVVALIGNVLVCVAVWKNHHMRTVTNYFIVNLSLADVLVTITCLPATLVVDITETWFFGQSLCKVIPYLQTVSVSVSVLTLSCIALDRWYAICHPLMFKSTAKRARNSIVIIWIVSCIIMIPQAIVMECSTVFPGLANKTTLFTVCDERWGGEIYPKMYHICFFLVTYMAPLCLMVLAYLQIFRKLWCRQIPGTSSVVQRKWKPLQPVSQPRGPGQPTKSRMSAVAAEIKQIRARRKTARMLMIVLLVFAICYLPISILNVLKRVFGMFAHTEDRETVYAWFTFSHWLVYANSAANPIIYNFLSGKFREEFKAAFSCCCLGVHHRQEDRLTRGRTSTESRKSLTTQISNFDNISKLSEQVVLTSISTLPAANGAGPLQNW
The test is described as follows: radioligand binding assay, membranes from CHO cells expressing OX2. Conditions: CHO cell membranes. On the procedure: as §1

With `Cc1ccc(-n2nccn2)c(C(=O)N2C[C@H](COc3cccc(F)c3)CC[C@H]2C)c1` [A-9, (2R,5R)-5-[(3-fluorophenoxy)methyl]-2-methyl-1-[5-methyl-2-(2H-1,2,3-triazol-2-yl)benzoyl]piperidine], the figures for the negative logarithm of the Ki (pKi) on orexin-1 receptor (OX1R) and on orexin-2 receptor (OX2R) were 9.07 and 9.44, respectively.
For the molecule `Cc1ccc(-n2nccn2)c(C(=O)N2C[C@H](COc3nccc4ccccc34)CC[C@H]2C)c1` [A-15, 1-({(3R,6R)-6-methyl-1-[5-methyl-2-(2H-1,2,3-triazol-2-yl)benzoyl]piperidine-3-yl}methoxy)isoquinoline], the negative logarithm of the Ki (pKi) (as a rule, −log10 of the Ki, conventionally taken in molar units) was 8.57 at orexin-1 receptor (OX1R) and 9.70 at orexin-2 receptor (OX2R).
For `Cc1ccc(-n2nccn2)c(C(=O)N2C[C@H](Cc3nc4ccccc4n3C)CC[C@H]2C)c1` [C-2, 1-methyl-2-({(3S,6R)-6-methyl-1-[5-methyl-2-(2H-1,2,3-triazol-2-yl)benzoyl]piperidin-3-yl}methyl)-1H-benzimidazole] the same measures were 8.35 and 8.34.
For `Cc1ccc(-n2nccn2)c(C(=O)N2C[C@H](CC(=O)N3CCCc4ccccc43)CC[C@H]2C)c1` [C-6, 1-({(3S,6R)-6-methyl-1-[5-methyl-2-(2H-1,2,3-triazol-2-yl)benzoyl]piperidin-3-yl}acetyl)-1,2,3,4-tetrahydroquinoline] the same measures were 7.02 and 8.16.
